We go through 13 molecules from ChEMBL document CHEMBL1132895, “Immunomodulatory activity of hexapeptides related to proline rich peptide from colostrum” (2000).

What all share (assay type): functional
For experiment [1], the species on record is Mus musculus. Briefly: Compound (10 ug/mL) was tested for their immunomodulatory activity in vitro using mixed lymphocyte reaction.
For experiment [2], the species on record is Mus musculus. Briefly: Compound (1.0 ug/mL) was tested for their immunomodulatory activity in vitro using mixed lymphocyte reaction.
The species entered for experiment [3] is Mus musculus. Briefly: Compound (1.0 ug/mL) was tested for their immunomodulatory activity in vitro using lymphocyte transformation test.
The species named for experiment [4] is Mus musculus. Briefly: Compound (0.01 ug/mL) was tested for their immunomodulatory activity in vitro using lymphocyte transformation test.
For experiment [5], the species on record is Mus musculus. Briefly: Compound (10 ug/mL) was tested for their immunomodulatory activity in vitro using lymphocyte transformation test.
The species named for experiment [6] is Mus musculus. Briefly: Compound (0.10 ug/mL) was tested for their immunomodulatory activity in vitro using lymphocyte transformation test.
The species entered for experiment [7] is Mus musculus. Briefly: Compound (0.01 ug/mL) was tested for their immunomodulatory activity in vitro using mixed lymphocyte reaction.
The species entered for experiment [8] is Mus musculus. Briefly: Compound (0.10 ug/mL) was tested for their immunomodulatory activity in vitro using mixed lymphocyte reaction.

Non-standard residues stand in square brackets, D forms with d. Residues, ends and D or L forms follow the SMILES beside them. Nva = CCC[C@H](N)C(=O)O; Sar = CNCC(=O)O

On to `CC(C)[C@H](NC(=O)[C@@H](N)Cc1ccc(O)cc1)C(=O)N1CCC[C@H]1C(=O)NCC(=O)N[C@@H](Cc1ccccc1)C(=O)N1CCC[C@H]1C(=O)O`, for which the Stimulation index in the experiment filed under Mus musculus [1] is 1; in the experiment listed under Mus musculus [2] it was 0.85; in the experiment listed under Mus musculus [3], 1.02; in the experiment filed under Mus musculus [4] it was 1.13; in the experiment listed under Mus musculus [5], 0.75; in the experiment filed under Mus musculus [6] it was 1.05. Further, the Stimulation index is given as 0.72 in the experiment listed under Mus musculus [7] and 0.79 in the experiment filed under Mus musculus [8].
As for `CC(C)[C@H](NC(=O)[C@@H](N)Cc1ccc(O)cc1)C(=O)N1CCC[C@H]1C(=O)NCC(=O)N[C@@H](Cc1ccccc1)C(=O)N(C)CC(=O)O` (H-YVPGF[Sar]-OH), the Stimulation index in the experiment listed under Mus musculus [1] amounted to 0.92; in the experiment listed under Mus musculus [2], 0.72; in the experiment listed under Mus musculus [3], 1.9; in the experiment listed under Mus musculus [4], 0.83; in the experiment filed under Mus musculus [5], 1.6; in the experiment listed under Mus musculus [6] it was 0.61. In addition, the Stimulation index in the experiment filed under Mus musculus [7] came out at 0.71; in the experiment listed under Mus musculus [8] it was 0.8.
Regarding `CC(C)C[C@H](NC(=O)[C@@H]1CCCN1C(=O)[C@@H](NC(=O)[C@@H](N)Cc1ccc(O)cc1)C(C)C)C(=O)N[C@@H](Cc1ccccc1)C(=O)N(C)CC(=O)O` (H-YVPLF[Sar]-OH), the Stimulation index in the experiment filed under Mus musculus [3] is given as 1.21; in the experiment filed under Mus musculus [4], 0.9; in the experiment listed under Mus musculus [5], 1.2; in the experiment listed under Mus musculus [6], 0.86.
In the case of `CC(C)[C@H](NC(=O)[C@@H](N)Cc1ccc(O)cc1)C(=O)N1CCC[C@H]1C(=O)N(C)CC(=O)N[C@@H](Cc1ccccc1)C(=O)N1CCC[C@H]1C(=O)O` (H-YVP[Sar]FP-OH), the Stimulation index stood at 1.37 in the experiment filed under Mus musculus [3], 1.41 in the experiment filed under Mus musculus [4], 0.96 in the experiment filed under Mus musculus [5] and 1.21 in the experiment filed under Mus musculus [6].
On to `CCC[C@H](NC(=O)[C@@H](N)Cc1ccc(O)cc1)C(=O)N1CCC[C@H]1C(=O)NCC(=O)N[C@@H](Cc1ccccc1)C(=O)N1CCC[C@H]1C(=O)O` (H-Y[Nva]PGFP-OH), for which the Stimulation index in the experiment filed under Mus musculus [3] turned out to be 1.15; in the experiment filed under Mus musculus [4], 0.86; in the experiment filed under Mus musculus [5], 0.73; in the experiment listed under Mus musculus [6], 1.06.
As for `CC(C)C[C@H](NC(=O)CN(C)C(=O)[C@@H](NC(=O)[C@@H](N)Cc1ccc(O)cc1)C(C)C)C(=O)N[C@@H](Cc1ccccc1)C(=O)N1CCCC1C(=O)O` (single isomer, unassigned), the Stimulation index in the experiment listed under Mus musculus [3] is 1.24; in the experiment filed under Mus musculus [4] it was 0.88; in the experiment listed under Mus musculus [5], 1.12; in the experiment filed under Mus musculus [6], 0.97.
Regarding `C[C@]12C=CC(=O)C=C1CCC1[C@@H]2[C@@H](O)C[C@@]2(C)[C@H]1CC[C@]2(O)C(=O)CO` (single isomer, unassigned) [PREDNISOLONE], the Stimulation index in the experiment listed under Mus musculus [8] came out at 0.3.
`CC(C)C[C@H](NC(=O)C1CCCN1C(=O)[C@@H](NC(=O)C(N)Cc1ccc(O)cc1)C(C)C)C(=O)N[C@@H](Cc1ccccc1)C(=O)N1CCCC1C(=O)O` (single isomer, unassigned; form 1): the Stimulation index in the experiment listed under Mus musculus [3] was found to be 0.88; in the experiment listed under Mus musculus [4], 1.1; in the experiment listed under Mus musculus [5], 0.82; in the experiment listed under Mus musculus [6], 1.08.
For `CC(C)[C@H](NC(=O)[C@@H](N)Cc1ccc(O)cc1)C(=O)N1CCCC1C(=O)NCC(=O)NC(Cc1ccccc1)C(=O)N1CCCC1C(=O)O` (single isomer, unassigned; form 1) the same measures were 0.96, 0.89, 1.05 and 1.02.
In the case of `CC(C)C[C@H](NC(=O)C1CCCN1C(=O)[C@@H](NC(=O)C(N)Cc1ccc(O)cc1)C(C)C)C(=O)N[C@@H](Cc1ccccc1)C(=O)N1CCCC1C(=O)O` (single isomer, unassigned; form 2), the Stimulation index in the experiment listed under Mus musculus [3] is 1.27; in the experiment listed under Mus musculus [4] it was 0.78; in the experiment filed under Mus musculus [5], 0.95; in the experiment filed under Mus musculus [6], 0.86.
As for `CC(C)[C@H](NC(=O)[C@@H](N)Cc1ccc(O)cc1)C(=O)N1CCCC1C(=O)NCC(=O)NC(Cc1ccccc1)C(=O)N1CCCC1C(=O)O` (single isomer, unassigned; form 2), the Stimulation index in the experiment listed under Mus musculus [1] was found to be 1; in the experiment filed under Mus musculus [2] it was 1.31; in the experiment filed under Mus musculus [3] it was 1.17; in the experiment filed under Mus musculus [4], 0.97; in the experiment listed under Mus musculus [5], 1.4; in the experiment listed under Mus musculus [6], 1.29. The Stimulation index stood at 0.96 in the experiment filed under Mus musculus [7] and 0.9 in the experiment filed under Mus musculus [8].
On to H-YLPGFP-OH, for which the Stimulation index is 1.24 in the experiment filed under Mus musculus [1]; 1.2 in the experiment listed under Mus musculus [2]; 0.62 in the experiment listed under Mus musculus [3]; 0.75 in the experiment listed under Mus musculus [4]; 0.59 in the experiment listed under Mus musculus [5]; 0.64 in the experiment listed under Mus musculus [6]. Also, the Stimulation index is reported as 0.63 in the experiment filed under Mus musculus [7] and 0.5 in the experiment filed under Mus musculus [8].
In the case of H-YVPGFP-NH2, the Stimulation index worked out at 1.1 in the experiment filed under Mus musculus [3], 0.83 in the experiment listed under Mus musculus [4], 0.84 in the experiment filed under Mus musculus [5] and 0.85 in the experiment filed under Mus musculus [6].
